Measured values published in PMC7476666 (Journal of the American Chemical Society, 2016).

Assays:
[1] = target: T1, EphB3 WT (Homo sapiens, UniProt P54753); assay: EphB3 autophosphorylation in transfected HEK293 cells; assay type: cell-based; settings: read-out: IC50, EphB3 autophosphorylation in cells
T1 sequence (P54753 34-998): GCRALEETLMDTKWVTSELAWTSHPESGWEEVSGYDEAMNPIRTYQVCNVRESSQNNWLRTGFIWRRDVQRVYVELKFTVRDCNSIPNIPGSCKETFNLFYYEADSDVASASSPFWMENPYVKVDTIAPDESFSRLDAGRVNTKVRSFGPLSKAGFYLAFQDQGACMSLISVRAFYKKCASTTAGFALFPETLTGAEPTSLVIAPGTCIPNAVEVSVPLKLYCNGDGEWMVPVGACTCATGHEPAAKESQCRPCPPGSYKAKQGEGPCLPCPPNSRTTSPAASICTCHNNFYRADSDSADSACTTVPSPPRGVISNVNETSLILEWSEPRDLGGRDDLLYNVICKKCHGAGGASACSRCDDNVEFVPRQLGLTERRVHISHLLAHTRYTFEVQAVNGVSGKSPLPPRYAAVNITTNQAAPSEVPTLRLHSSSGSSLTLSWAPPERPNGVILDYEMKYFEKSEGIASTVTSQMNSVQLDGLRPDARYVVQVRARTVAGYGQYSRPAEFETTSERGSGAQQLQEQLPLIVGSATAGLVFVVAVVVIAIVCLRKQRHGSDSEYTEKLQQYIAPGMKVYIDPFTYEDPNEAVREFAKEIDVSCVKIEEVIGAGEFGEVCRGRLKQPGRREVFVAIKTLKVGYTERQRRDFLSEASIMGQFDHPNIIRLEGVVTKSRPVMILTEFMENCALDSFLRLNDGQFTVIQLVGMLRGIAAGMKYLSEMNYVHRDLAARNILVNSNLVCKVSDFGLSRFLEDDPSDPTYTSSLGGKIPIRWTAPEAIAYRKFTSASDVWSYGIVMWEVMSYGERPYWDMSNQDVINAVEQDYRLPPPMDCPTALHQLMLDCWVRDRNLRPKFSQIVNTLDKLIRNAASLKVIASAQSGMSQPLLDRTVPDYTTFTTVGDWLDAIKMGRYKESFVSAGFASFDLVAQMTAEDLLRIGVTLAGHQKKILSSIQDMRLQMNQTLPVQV

[2] = target: T2, EphB3 (Homo sapiens, UniProt P54753); assay: Competition with probe 10 for EphB3 labeling in cell lysate; assay type: binding
T2 sequence (P54753 34-998): T1 sequence (P54753 34-998)

[3] = target: T2, EphB3; assay: Competition / pulse-chase with probe 10 for EphB3 occupancy in HEK293 cells

IC50 [1]: 320 nM
time to engage EphB3 (preincubation required to compete off labeling by 10) [2]: over 10 min
time to engage EphB3 (preincubation required to block labeling by 10) ([3]; live cells): over 10 min
IC50 ([3]; read-out: IC50 for probe labeling of EphB3, competition with 10 (10 nM) in cells): 260 nM
SMILES: Cc1ccc(C(=O)Nc2cccc(C(F)(F)F)c2)cc1Nc1nc(-c2cccnc2)nc2c1cnn2C [BHG-712]
